# Values of other authors, collected in patent US8986736B2, “Method for delivering particulate drugs to tissues” (Baxter International Inc., priority 2003, dated 2015).
# Test system: HIV-infected macrophages
compound,measurement,setting,value
CC(C)(C)NC(=O)[C@@H]1C[C@@H]2CCCC[C@@H]2CN1C[C@@H](O)[C@H](Cc1ccccc1)NC(=O)[C@H](CC(N)=O)NC(=O)c1ccc2ccccc2n1 [saquinavir],activity in chronically HIV-infected macrophages,"100 nM, in solution",completely inactive
same,antiviral activity,"aqueous solution, HIV-infected macrophages",little antiviral activity
